Read-outs that look alike come from different tables or passages of the source.
Legend:
[1] = molecular target: T1, glucosylceramide synthase (GCS) (Homo sapiens, UniProt Q16739); assay: Glucosylceramide synthase assay using HL-60 cell microsomes; assay type: biochemical; settings: read-out: IC50 as GCS inhibitors
T1 construct: assay was conducted using HL-60 cell microsomes as described in the literature; endogenous in cells; host or cells: HL-60 cell microsomes
T1 sequence (Q16739 1-394): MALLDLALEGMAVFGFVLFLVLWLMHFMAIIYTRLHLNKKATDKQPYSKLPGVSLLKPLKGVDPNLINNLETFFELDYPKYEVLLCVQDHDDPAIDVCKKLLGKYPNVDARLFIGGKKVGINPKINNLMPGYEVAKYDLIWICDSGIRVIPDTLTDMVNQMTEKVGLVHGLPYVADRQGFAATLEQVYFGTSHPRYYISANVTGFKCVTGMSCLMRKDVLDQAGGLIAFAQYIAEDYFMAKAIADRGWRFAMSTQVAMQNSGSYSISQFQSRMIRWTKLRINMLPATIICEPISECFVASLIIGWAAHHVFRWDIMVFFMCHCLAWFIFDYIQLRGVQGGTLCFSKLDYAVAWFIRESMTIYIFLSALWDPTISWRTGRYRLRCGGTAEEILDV
Procedure: Glucosylceramide synthase [UDP-glucose N-acyl-sphingosine glucosyltransferase (EC 2.4.1.80)] assay was conducted using HL-60 cell microsomes as described in the literature.^iv
All inhibitors were screened at a concentration of 100 μM against glycosidases and 50 μM against glucosylceramide synthase; all assays were recorded in duplicate.

[2] = system: bovine diarrhoea virus (BVDV); settings: MOI=0.1, literature (ref 16); read-out: IC50 against BVDV; cited from earlier work
[3] = system: bovine diarrhoea virus (BVDV); assay: BVDV antiviral assay in MDBK cells, plaque assay of secreted virus; assay type: cell-based; settings: Bovine viral diarrhea virus isolates and strains; MOI=0.5, MDBK cells; read-out: IC50 against BVDV
Procedure: Madin-Darby bovine kidney cells (MDBK) were grown in DMEM/F12 (purchased from Gibco BRL) supplemented with 10% heat-inactivated horse serum (Gibco BRL). The cytopathic NADL strain of bovine viral diarrhoea virus (BVDV) (kindly provided by Dr. Ruben Donis, University of Nebraska) stock was prepared as previously described.^viii For antiviral activity testing MDBK cells were plated into 24 well plates 24 hours before virus infection. Cells were infected with BVDV at moi=0.5 for 1 hour in 100 μL media with occasional rocking of the plate. The inocula were washed twice with media and regular media were added with 100 μM of the test compound. After 24 hours, the supernatant media were saved. Secreted viruses in the media were titred on new MDBK cells by standard plaque assay. Toxicity of the compounds was determined by examining the tissue culture cells after the 24 hour treatment.

Q: For “1-Butyl-2,3-trans-2-(1-pentylcarbamoyl)-3,4-cis-O-isopropylidene-pyrrolidine [compound 10]”, which IC50 [1] is on record?
A: The IC50 was 117 µM.

Q: With CCCCCCCCCN1C[C@H](O)[C@@H](O)[C@H](O)[C@H]1CO [NN-DNJ] as the compound, how does the IC50 [2] read?
A: The IC50 was 10 µM.

Q: With CC(C)NC(=O)C1[C@H](O)[C@@H](O)CN1C(=O)c1ccoc1 (stereo partly shown) [9viiiF] as the compound, how does the IC50 [3] read?
A: Its IC50 is 30 µM.

Q: With CC(C)(C)CC(C)(C)NC(=O)C1[C@H](O)[C@@H](O)CN1C(=O)c1ccccc1 (stereo partly shown) [9iiA] as the compound, how does the IC50 [3] read?
A: Its IC50 is 25 µM.

Q: With CCCC(C)NC(=O)C1[C@H](O)[C@@H](O)CN1C(=O)c1cccc(N(C)C)c1 (stereo partly shown) [9viiG] as the compound, how does the IC50 [3] read?
A: The IC50 was 30 µM.

Q: Which IC50 [1] does the source give for CCCCCNC(=O)C1NCC2OC(C)(C)OC21 (stereo not drawn) [compound 11, 2,3-trans-2-(1-Pentylcarbamoyl)-3,4-cis-O-isopropylidene-pyrrolidine] here?
A: The IC50 was 140 µM.

Q: For CCCCN1C[C@H](O)[C@@H](O)[C@H](O)[C@H]1CO [NB-DNJ], which IC50 [2] is on record?
A: Its IC50 is 125 µM.
